Experimental data reported in the supplement of paper PMC10307832.

Key:
Experiment in all cases: relative viability (nuclei count vs DMSO), 5 days (fraction); higher = more cells survive
[1] = compound: CC[C@H](C)N1C=C(C2=C(C=C(C=C21)C3=CN=C(C=C3)N4CCNCC4)C(=O)NCC5=C(C=C(NC5=O)C)C)C [GSK126] + Cc1nc(NC(=O)N2CCC[C@H]2C(N)=O)sc1-c1ccnc(C(C)(C)C(F)(F)F)c1 [Alpelisib] (partner 2 µM)
How it was run: (§1)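 The day after seeding in 1536-well plates, lung cancer cell lines were treated by pin tool with a single drug, or with a fixed anchor-drug dose together with five library-drug doses (not always all listed) in √10 steps. After 5 days, a combined fix-and-stain solution (final 0.05% Triton X-100, 1% formaldehyde, 1 ug/ml Hoechst) was added. Nuclei counted on 4× images gave relative viability as treated counts over vehicle counts, reported as the median of duplicate plates.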

[2] = compound: C1CC(C1)(C(=O)O)C(=O)O.[NH2-].[NH2-].[Pt+2] [Carboplatin] + Nc1ncn([C@H]2C[C@H](O)[C@@H](CO)O2)c(=O)n1 [Decitabine] (partner 2 µM)
How it was run: as §1

[3] = compound: C1CC(C1)(C(=O)O)C(=O)O.[NH2-].[NH2-].[Pt+2] [Carboplatin] + N=C(N)NC(=N)NCCc1ccccc1 [Phenformin] (partner 250 µM)
How it was run: as §1

[4] = compound: NS(=O)(=O)OC[C@@H]1C[C@@H](n2ccc3c(N[C@H]4CCc5ccccc54)ncnc32)C[C@@H]1O [MLN4924] + CS(=O)(=O)CCNCc1ccc(-c2ccc3ncnc(Nc4ccc(OCc5cccc(F)c5)c(Cl)c4)c3c2)o1 [Lapatinib] (partner 2 µM)
How it was run: as §1

Row | Cell Line | relative viability ([1]; first compound 0.08 µM) | relative viability ([1]; first compound 0.253 µM) | relative viability ([1]; first compound 0.8 µM) | relative viability ([1]; first compound 2.53 µM) | relative viability ([1]; first compound 8 µM) | relative viability ([2]; first compound 0.08 µM) | relative viability ([2]; first compound 0.253 µM) | relative viability ([2]; first compound 0.8 µM) | relative viability ([2]; first compound 2.53 µM) | relative viability ([2]; first compound 8 µM) | relative viability ([3]; first compound 0.08 µM) | relative viability ([3]; first compound 0.253 µM) | relative viability ([3]; first compound 0.8 µM) | relative viability ([3]; first compound 2.53 µM) | relative viability ([3]; first compound 8 µM) | relative viability ([4]; first compound 0.04 µM) | relative viability ([4]; first compound 0.1265 µM) | relative viability ([4]; first compound 0.4 µM) | relative viability ([4]; first compound 1.265 µM) | relative viability ([4]; first compound 4 µM)
1 | PC-14 | 0.946 | 0.993 | 0.899 | 0.826 | 0.852 | 0.179 | 0.209 | 0.165 | 0.119 | 0.0887 | 0.807 | 0.592 | 0.53 | 0.383 | 0.274 | 0.382 | 0.655 | 0.395 | 0.157 | 0.136
2 | HCC-15 | 0.915 | 0.88 | 0.816 | 0.858 | 0.759 | 0.657 | 0.627 | 0.588 | 0.587 | 0.452 | 0.562 | 0.47 | 0.441 | 0.407 | 0.37 | 0.514 | 0.374 | 0.115 | 0.0895 | 0.0956
3 | NCI-H2347 | 1.22 | 0.918 | 1.09 | 0.99 | 0.907 | 0.615 | 0.428 | 0.621 | 0.653 | 0.552 | 0.36 | 0.382 | 0.583 | 0.534 | 0.324 | 0.746 | 0.897 | 0.487 | 0.338 | 0.412
4 | LOU-NH91 | 0.778 | 0.694 | 0.696 | 0.721 | 0.722 | 0.873 | 0.832 | 0.806 | 0.792 | 0.77 | 0.871 | 0.646 | 0.714 | 0.708 | 0.675 | 0.814 | 0.926 | 0.904 | 0.533 | 0.414
5 | LCLC-103H | 0.953 | 1.02 | 0.927 | 0.992 | 1.03 | 0.801 | 0.735 | 0.747 | 0.719 | 0.735 | 0.325 | 0.357 | 0.347 | 0.32 | 0.348 | – | – | – | – | –
6 | EMC-BAC-2 | 0.785 | 0.77 | 0.718 | 0.731 | 0.765 | 1.01 | 0.944 | 0.999 | 0.922 | 0.716 | 0.559 | 0.581 | 0.52 | 0.521 | 0.461 | 0.468 | 0.913 | 0.303 | 0.217 | 0.178
7 | NCI-H2228 | 0.848 | 0.52 | 0.691 | 0.99 | 0.783 | – | – | – | – | – | 0.26 | 0.342 | 0.294 | 0.257 | 0.282 | – | 0.638 | 0.271 | 0.13 | 0.161
8 | HOP-62 | 0.998 | 1.14 | 0.974 | 0.727 | 0.917 | 0.234 | 0.223 | 0.243 | 0.195 | 0.214 | 0.713 | 0.643 | 0.628 | 0.654 | 0.548 | 0.843 | 0.798 | 0.205 | 0.114 | 0.0815
9 | NCI-H727 | 0.649 | 0.493 | 0.643 | 0.636 | 0.704 | 1.12 | 0.956 | 0.882 | 0.935 | 0.861 | 0.504 | 0.652 | 0.454 | 0.497 | 0.365 | 0.692 | 0.704 | 0.352 | 0.24 | 0.192
10 | COR-L 105 | 0.984 | 1.03 | 0.927 | 1.02 | 0.966 | 0.648 | 0.611 | 0.687 | 0.515 | 0.398 | 0.576 | 0.418 | 0.481 | 0.411 | 0.373 | 0.355 | 0.335 | 0.337 | 0.282 | 0.281
11 | NCI-H358 | 1.08 | 1.07 | 0.857 | 0.935 | 0.904 | 0.213 | 0.222 | 0.201 | 0.201 | 0.186 | 0.426 | 0.418 | 0.395 | 0.431 | 0.334 | 0.585 | 0.654 | 0.345 | 0.25 | 0.236
12 | SK-MES-1 | 0.901 | 0.878 | 0.92 | 0.868 | 0.996 | 0.419 | 0.415 | 0.345 | 0.341 | 0.341 | 0.681 | 0.672 | 0.671 | 0.638 | 0.592 | 0.534 | 0.722 | 0.486 | 0.281 | 0.212
13 | LC-2-ad | 0.927 | 0.967 | 0.773 | 0.793 | 0.9 | 0.753 | 0.93 | 0.708 | 0.776 | 0.64 | 0.661 | 0.551 | 0.525 | 0.517 | 0.386 | 0.561 | 0.505 | 0.143 | 0.104 | 0.107
14 | H3255 | 0.716 | 0.679 | 0.847 | 0.643 | 0.738 | 0.775 | 0.504 | 0.687 | 0.622 | 0.421 | 0.291 | 0.381 | 0.395 | 0.349 | 0.364 | 0.253 | 0.38 | 0.201 | 0.185 | 0.208
15 | A-427 | 1.12 | 1.07 | 1.05 | 1.16 | 1.06 | 0.593 | 0.562 | 0.571 | 0.527 | 0.512 | 0.428 | 0.385 | 0.32 | 0.285 | 0.383 | 0.589 | 0.608 | 0.268 | 0.196 | 0.169
16 | NCI-H661 | 0.802 | 0.638 | 0.657 | 0.478 | 0.58 | 0.526 | 0.577 | 0.534 | 0.521 | 0.526 | 0.249 | 0.286 | 0.259 | 0.276 | 0.301 | 0.538 | 0.632 | 0.499 | 0.228 | 0.28
